Holding throughout (type): functional, cell-based
The target of test [1] is Mu-type opioid receptor (Homo sapiens) (UniProt P35372). As to the kind of experiment: Antagonist activity at human mu opioid receptor expressed in CHO cells assessed as inhibition of DAMGO stimulated [35S]GTPgammaS binding. A general note: GTPγS is a poorly hydrolysed GTP analogue; its binding reports G protein activation.
The target in test [2] is Kappa-type opioid receptor (Homo sapiens) (UniProt P41145). As to the kind of experiment: Antagonist activity at human kappa opioid receptor expressed in CHO cells assessed as inhibition of U69,593 stimulated [35S]GTPgammaS binding.
Chain of Kappa-type opioid receptor (Homo sapiens) (P41145 whole entry): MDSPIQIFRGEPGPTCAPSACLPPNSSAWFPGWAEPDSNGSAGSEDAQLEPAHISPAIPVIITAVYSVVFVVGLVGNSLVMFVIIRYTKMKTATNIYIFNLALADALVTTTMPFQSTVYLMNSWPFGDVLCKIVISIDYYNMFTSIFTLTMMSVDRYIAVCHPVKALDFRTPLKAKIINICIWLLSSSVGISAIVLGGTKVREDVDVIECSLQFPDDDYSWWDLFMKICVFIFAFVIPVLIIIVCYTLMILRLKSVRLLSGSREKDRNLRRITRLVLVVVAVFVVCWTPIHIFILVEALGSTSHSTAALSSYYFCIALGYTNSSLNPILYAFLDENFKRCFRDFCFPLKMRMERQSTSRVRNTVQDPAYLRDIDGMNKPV
Test [3] concerns the target Delta-type opioid receptor (Homo sapiens) (UniProt P41143). The test can be described thus: Antagonist activity at human delta opioid receptor expressed in CHO cells assessed as inhibition of DPDPE stimulated [35S]GTPgammaS binding.

Structures are written as SMILES. A value given as a limit tells only on which side of the number the result lay.

Chain of Mu-type opioid receptor (Homo sapiens) (P35372 whole entry): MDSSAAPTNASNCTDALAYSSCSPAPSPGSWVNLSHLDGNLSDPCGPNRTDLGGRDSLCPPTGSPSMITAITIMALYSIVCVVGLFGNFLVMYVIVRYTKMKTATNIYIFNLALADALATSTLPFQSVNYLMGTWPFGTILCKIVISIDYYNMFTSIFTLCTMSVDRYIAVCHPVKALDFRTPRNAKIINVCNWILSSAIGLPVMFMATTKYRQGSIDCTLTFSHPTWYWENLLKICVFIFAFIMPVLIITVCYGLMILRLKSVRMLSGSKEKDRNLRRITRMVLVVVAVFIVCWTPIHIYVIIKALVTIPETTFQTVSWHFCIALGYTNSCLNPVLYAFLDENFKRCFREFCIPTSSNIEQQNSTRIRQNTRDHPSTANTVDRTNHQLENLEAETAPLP
Chain of Delta-type opioid receptor (Homo sapiens) (P41143 whole entry): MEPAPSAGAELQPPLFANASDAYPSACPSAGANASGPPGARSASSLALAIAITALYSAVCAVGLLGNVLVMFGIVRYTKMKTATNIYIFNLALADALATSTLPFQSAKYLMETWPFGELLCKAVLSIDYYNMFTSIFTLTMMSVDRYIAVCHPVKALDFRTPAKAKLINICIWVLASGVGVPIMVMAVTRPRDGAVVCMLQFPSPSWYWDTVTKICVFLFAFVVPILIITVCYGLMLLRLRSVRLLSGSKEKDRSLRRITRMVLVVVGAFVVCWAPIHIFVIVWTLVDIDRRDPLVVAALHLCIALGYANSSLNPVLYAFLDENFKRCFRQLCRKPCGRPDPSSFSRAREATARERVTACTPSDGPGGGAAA

`C[C@H]1CN(C)CC[C@@]1(C)c1cccc(O)c1` (relative stereo): the Ke in test [1] stood at 29.3 nM.
As for `Oc1cccc(N2CCN(CCCc3ccccc3)CC2)c1`, the Ke in test [2] was determined as 36.8 nM; in test [1] it was 8.47 nM; in test [3] it was 34.3 nM.
On to `C[C@@H]1CN(c2cccc(O)c2)[C@@H](C)CN1CCCc1ccccc1`, for which the values for the Ke in test [2], in test [1] and in test [3] were 4.25 nM, 6.14 nM and 55.3 nM, respectively.
The like results for `C[C@H]1CN(C)CCN1c1cccc(O)c1` were, in that order, 194 nM, 508 nM and greater than 10000 nM.
The like results for `C[C@H]1CN(CCCc2ccccc2)C[C@H](C)N1c1cccc(O)c1` were, in that order, 123 nM, 1650 nM and 9000 nM.
For the compound `C[C@H]1CN(c2cccc(O)c2)[C@@H](C)CN1CCCc1ccccc1`, the results for the Ke in test [2], in test [1] and in test [3] were 19.5 nM, 17.9 nM and 23.4 nM, respectively.
In the case of `C[C@@H]1CN(CCCc2ccccc2)[C@@H](C)CN1c1cccc(O)c1`, the Ke in test [2] is 22.9 nM; in test [1] it was 18 nM; in test [3], 180 nM.
As to `C[C@H]1CN(CCCc2ccccc2)CC[C@@]1(C)c1cccc(O)c1`, the results for the Ke in test [2], in test [1] and in test [3] were 0.88 nM, 0.1 nM and 0.9 nM, respectively.
With `C[C@@H]1CN(CCCc2ccccc2)CCN1c1cccc(O)c1`, the values for the Ke in test [2], in test [1] and in test [3] were 1.57 nM, 1.01 nM and 6.99 nM, respectively.
On to `C[C@H]1CN(CCCc2ccccc2)CCN1c1cccc(O)c1`, for which the Ke was determined as 4.09 nM in test [2], 0.88 nM in test [1] and 13.4 nM in test [3].

These data come from ChEMBL document CHEMBL1773029, “1-Substituted 4-(3-Hydroxyphenyl)piperazines Are Pure Opioid Receptor Antagonists” (ACS Med Chem Lett, 2010).
